Columns and labels:
human orexin-1 receptor = human orexin-1 receptor (Homo sapiens (Human), UniProt O43613); assay: In vitro assay: intracellular calcium measurements (FLIPR), antagonistic activity; type: cell-based; conditions: CHO cells expressing human orexin-1 receptor, orexin-A agonist, geometric mean, read-out: IC50 Ox1
Description: (§1) In Vitro Assay: Intracellular Calcium Measurements:
(§2) Chinese hamster ovary (CHO) cells expressing the human orexin-1 receptor and the human orexin-2 receptor, respectively, are grown in culture medium (Ham F-12 with L-Glutamine) containing 300 μg/ml G418, 100 U/ml penicillin, 100 μg/ml streptomycin and 10% heat inactivated fetal calf serum (FCS). The cells are seeded at 20,000 cells/well into 384-well black clear bottom sterile plates (Greiner). The seeded plates are incubated overnight at 37° C. in 5% CO2.
(§3) Human orexin-A as an agonist is prepared as 1 mM stock solution in MeOH: water (1:1), diluted in HBSS containing 0.1% bovine serum albumin (BSA), NaHCO3: 0.375 g/l and 20 mM HEPES for use in the assay at a final concentration of 3 nM.
(§4) Antagonists are prepared as 10 mM stock solution in DMSO, then diluted in 384-well plates using DMSO followed by a transfer of the dilutions into in HBSS containing 0.1% bovine serum albumin (BSA), NaHCO3: 0.375 g/l and 20 mM HEPES. On the day of the assay, 50 μl of staining buffer (HBSS containing 1% FCS, 20 mM HEPES, NaHCO3: 0.375 g/l, 5 mM probenecid (Sigma) and […] of the fluorescent calcium indicator fluo-4 AM (1 mM stock solution in DMSO, containing 10% pluronic) is added to each well. The 384-well cell-plates are incubated for 50 min at 37° C. in 5% CO2 followed by equilibration at RT for 30 min before measurement.
(§5) Within the Fluorescent Imaging Plate Reader (FLIPR Tetra, Molecular Devices), antagonists are added to the plate in a volume of 10 μl/well, incubated for 120 min and finally 10 μl/well of agonist is added. Fluorescence is measured for each well at 1 second intervals, and the height of each fluorescence peak is compared to the height of the fluorescence peak induced by an approximate EC70 (for example 5 nM) of orexin-A with vehicle in place of antagonist. The IC50 value (the concentration of compound needed to inhibit 50% of the agonistic response) is determined and may be normalized using the obtained IC50 value of a on-plate reference compound. Optimized conditions are achieved by adjustment of pipetting speed and cell splitting regime. The calculated IC50 values may fluctuate depending on the daily cellular assay performance. Fluctuations of this kind are known to those skilled in the art. Average IC50 values from several measurements are given as geometric mean values.

human orexin-2 receptor = human orexin-2 receptor (Homo sapiens (Human), UniProt O43614); assay: as above; type: cell-based; conditions: CHO cells expressing human orexin-2 receptor, orexin-A agonist, geometric mean, read-out: IC50 Ox2
Chain of human orexin-2 receptor (O43614 whole entry): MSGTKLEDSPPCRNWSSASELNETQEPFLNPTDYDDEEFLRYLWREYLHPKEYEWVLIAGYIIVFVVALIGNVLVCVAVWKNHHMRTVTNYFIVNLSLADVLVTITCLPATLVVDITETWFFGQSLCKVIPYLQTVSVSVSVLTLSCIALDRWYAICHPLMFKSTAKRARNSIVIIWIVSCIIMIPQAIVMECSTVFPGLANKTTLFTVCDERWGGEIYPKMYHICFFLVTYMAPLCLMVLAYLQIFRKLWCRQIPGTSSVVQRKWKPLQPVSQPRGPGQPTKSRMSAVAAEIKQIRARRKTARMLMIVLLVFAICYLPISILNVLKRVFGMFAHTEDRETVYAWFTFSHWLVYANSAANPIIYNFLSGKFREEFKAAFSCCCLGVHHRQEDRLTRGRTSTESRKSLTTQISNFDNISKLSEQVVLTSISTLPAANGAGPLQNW
Description: as §1, §2, §3, §4, §5

Chain of human orexin-1 receptor (O43613 whole entry): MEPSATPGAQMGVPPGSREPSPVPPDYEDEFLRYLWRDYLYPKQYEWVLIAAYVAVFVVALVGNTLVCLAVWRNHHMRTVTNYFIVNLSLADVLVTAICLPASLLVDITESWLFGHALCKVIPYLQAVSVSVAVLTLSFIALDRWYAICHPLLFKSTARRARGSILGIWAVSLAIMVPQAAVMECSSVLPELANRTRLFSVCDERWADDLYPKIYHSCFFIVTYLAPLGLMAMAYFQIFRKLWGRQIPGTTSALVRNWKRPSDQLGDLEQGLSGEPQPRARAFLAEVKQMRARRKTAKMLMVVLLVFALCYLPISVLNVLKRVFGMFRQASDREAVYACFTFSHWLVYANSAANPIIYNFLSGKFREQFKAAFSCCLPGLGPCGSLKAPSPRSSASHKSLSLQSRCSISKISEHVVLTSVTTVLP

Row | IC50 (human orexin-1 receptor) | IC50 (human orexin-2 receptor) | SMILES
1 | 2 nM | 457 nM | Cc1ccc(-c2ccccc2)c(C(=O)N2CC[C@H](C)[C@H]2c2nc3c(C)c(Cl)ccc3[nH]2)c1 [Ex. 4.172]
2 | 360 nM | 900 nM | C[C@@]1(c2nc3c(F)c(F)ccc3[nH]2)CCCN1C(=O)c1cc(F)ccc1-n1nccn1 [Ex. 5.204]
3 | 12 nM | 6 nM | C=C1C[C@@H](c2nc3cc(Cl)c(C(F)(F)F)cc3[nH]2)N(C(=O)c2ccc(C)cc2-n2nccn2)C1 [Ex. 6.182]
4 | 41 nM | 57 nM | COc1ccc(-c2ccc(OC)c(F)c2C(=O)N2CCC[C@@]2(C)c2nc3c(C)c(Cl)ccc3[nH]2)cc1 [Ex. 5.297]
5 | 136 nM | 282 nM | CSc1cccc2nc([C@@H]3CCCN3C(=O)c3nccnc3-c3cccc(C(F)(F)F)c3)[nH]c12 [Ex. 1.73]
6 | 5 nM | 263 nM | Cc1c(Cl)ccc2[nH]c([C@]3(C)CCCN3C(=O)c3nc(-c4ccccc4F)sc3-c3ccc(F)cc3)nc12 [Ex. 5.233]
7 | 2 nM | 110 nM | Cc1ccc(C(=O)N2CC[C@H](C)[C@H]2c2nc3cc(Cl)c(C)cc3[nH]2)c(-c2ccccc2)c1 [Ex. 4.111]
8 | 24 nM | 16 nM | COc1ccc(-c2cccc(C)c2)c(C(=O)N2CCC[C@@]2(C)c2nc3ccc(Cl)c(C)c3[nH]2)c1F [Ex. 5.301]
9 | 38 nM | 28 nM | COc1cccc(-c2ccc(C)cc2C(=O)N2CCC[C@@]2(C)c2nc3cc(C)c(C)cc3n2C)c1 [Ex. 7.42]
10 | 7 nM | 82 nM | Cc1ccc(-n2cccn2)c(C(=O)N2CCC[C@@]2(C)c2nc3cc(C(F)(F)F)c(Cl)cc3[nH]2)n1 [Ex. 5.143]
11 | 27 nM | 112 nM | C[C@@]1(c2nc3cc(C(F)(F)F)c(Cl)cc3[nH]2)CCCN1C(=O)c1cc(OC(F)(F)F)ccc1-n1nccn1 [Ex. 5.147]
12 | 339 nM | 1160 nM | Cc1ccc(-c2ccc(C(F)(F)F)cc2)c(C(=O)N2CCC[C@@]2(C)c2nc3cc(C(F)(F)F)ccc3[nH]2)c1 [Ex. 5.183]
13 | 7 nM | 23 nM | Cc1nc(C(=O)N2CCC[C@H]2c2nc3cc(Cl)c(C(F)(F)F)cc3[nH]2)c(-c2ccccc2)s1 [Ex. 1.146]
14 | 113 nM | 411 nM | Cc1ccc(-n2nccn2)c(C(=O)N2CCC[C@@]2(C)c2nc3cc(F)c(Br)cc3[nH]2)c1F [Ex. 5.124]
15 | 300 nM | 413 nM | Cc1ccc(-c2cccc(OC(F)(F)F)c2)c(C(=O)N2CCC[C@@]2(C)c2nc3cc(C(F)(F)F)ccc3[nH]2)c1 [Ex. 5.184]
16 | 20 nM | 4400 nM | Cc1ccc(-c2cccnc2)c(C(=O)N2CC[C@H](C)[C@H]2c2nc3c(C)c(Cl)ccc3[nH]2)c1 [Ex. 4.163]
17 | 51 nM | 3 nM | C=C1C[C@@H](c2nc3cc(C(C)(C)C)ccc3[nH]2)N(C(=O)c2cc(Cl)ccc2-n2nccn2)C1 [Ex. 6.161]
18 | 28 nM | 20 nM | CO[C@H]1CN(C(=O)c2nc(C)sc2-c2ccccc2)C(C)(c2nc3c(C)cccc3[nH]2)C1 (stereo partly shown) [Ex. 3.29]
19 | 6 nM | 30 nM | Cc1ccc(-n2nccn2)c(C(=O)N2CCC[C@@]2(C)c2nc3cc(C(F)(F)F)c(Cl)cc3[nH]2)n1 [Ex. 5.145]
20 | 66 nM | 2170 nM | COc1cc2nc([C@@H]3[C@@H](C)CCN3C(=O)c3ccccc3-c3ccc(C)cc3)[nH]c2cc1OC [Ex. 4.58]
21 | 11 nM | 65 nM | Cc1ccc(-c2ccc(F)cc2)c(C(=O)N2CCC[C@@]2(C)c2nc3cc(C)c(C)cc3n2C)c1 [Ex. 7.15]
22 | 7 nM | 155 nM | Cc1c(Cl)ccc2nc([C@]3(C)CCCN3C(=O)c3nc(-c4ccccc4)sc3-c3ccc(F)cc3)[nH]c12 [Ex. 5.226]
23 | 106 nM | 9 nM | C=C1C[C@@H](c2nc3cc(OC)ccc3[nH]2)N(C(=O)c2ccsc2-c2ccc(C)c(C)c2)C1 [Ex. 6.39]
24 | 265 nM | 861 nM | Cc1ccc(-n2cccn2)c(C(=O)N2CCC[C@@]2(C)c2nc3c(F)c(F)ccc3[nH]2)c1 [Ex. 5.201]
25 | 7 nM | 350 nM | Cc1ccc(-c2ncccn2)c(C(=O)N2CC[C@H](C)[C@H]2c2nc3c(C)c(Cl)ccc3[nH]2)c1 [Ex. 4.178]
26 | 11 nM | 29 nM | Cc1ccc(-c2ccccc2F)c(C(=O)N2CCC[C@@]2(C)c2nc3cc(C)c(C)cc3[nH]2)c1 [Ex. 5.95]
27 | 13 nM | 32 nM | C=C1CN(C(=O)c2nc(C)sc2-c2cccc(C)c2)C(C)(c2nc3cc(OC)ccc3[nH]2)C1 (stereo not shown) [Ex. 6.143]
28 | 19 nM | 72 nM | Cc1c(Cl)ccc2nc([C@]3(C)CCCN3C(=O)c3cc(F)ccc3-c3ccccn3)[nH]c12 [Ex. 5.219]

Second part, the compound before the results:

Row | SMILES | IC50 (human orexin-1 receptor) | IC50 (human orexin-2 receptor)
29 | COc1cccc2nc([C@@H]3CCCN3C(=O)c3cc(C)ccc3-n3nccn3)[nH]c12 [Ex. 1.4] | 241 nM | 30 nM
30 | C=C1CC(c2nc3cc(OC)ccc3[nH]2)N(C(=O)c2cc(C)sc2-c2ccc(C)c(C)c2)C1 (racemic) [Ex. 6.71] | 24 nM | 2 nM
31 | CSc1cccc2nc([C@@H]3CCCN3C(=O)c3cnc(C)nc3-c3ccc(Br)c(Cl)c3)[nH]c12 [Ex. 1.90] | 2 nM | 14 nM
32 | CO[C@@H]1C[C@@H](c2nc3ccc(Cl)c(C)c3[nH]2)N(C(=O)c2nc(C)sc2-c2cccc(C)c2)C1 [Ex. 3.32] | 0.9 nM | 5 nM
33 | C=C1C[C@@H](c2nc3ccc(Cl)c(C)c3[nH]2)N(C(=O)c2c(-n3nccn3)ccc(OC)c2F)C1 [Ex. 6.133] | 3 nM | 2 nM
34 | C=C1C[C@@H](c2nc3ccc(Cl)c(C)c3[nH]2)N(C(=O)c2nc(C)sc2-c2ccc(Cl)cc2)C1 [Ex. 6.119] | 14 nM | 3 nM
35 | Cc1nc(C(=O)N2CC[C@H](C)[C@H]2c2nc3cc(CO)ccc3[nH]2)c(-c2cccc(Cl)c2)s1 [Ex. 4.27] | 59 nM | 5590 nM
36 | CSc1ccc2nc([C@@H]3CCCN3C(=O)c3ccccc3-n3nccn3)[nH]c2c1 [Ex. 1.47] | 446 nM | 13 nM
37 | Cc1nc(C(=O)N2CCC[C@H]2c2nc3c(C)cc(Br)cc3[nH]2)c(-c2ccccc2)s1 [Ex. 1.144] | 33 nM | 27 nM
38 | Cc1nc(C(=O)N2CCCC2c2nc3cc(Cl)c(C)cc3[nH]2)c(-c2ccccc2)s1 (stereo not shown) [Ex. 1.126] | 18 nM | 24 nM
39 | C=C1C[C@@H](c2nc3cc(C)c(C)cc3[nH]2)N(C(=O)c2nc(C)sc2-c2ccc(C)c(C)c2)C1 [Ex. 6.56] | 6 nM | 1 nM
40 | C=C1C[C@@H](c2nc3cc(OC)ccc3[nH]2)N(C(=O)c2nc(C)sc2-c2ccc(OC)cc2)C1 [Ex. 6.2] | 223 nM | 17 nM
41 | COc1ccc(-n2nccn2)c(C(=O)N2CCC[C@@]2(C)c2nc3cc(C)c(C)cc3[nH]2)c1 [Ex. 5.54] | 33 nM | 20 nM
42 | Cc1nc(C(=O)N2CC[C@H](C)[C@H]2c2nc3c(C)c(C)ccc3[nH]2)c(-c2cccc(Cl)c2)s1 [Ex. 4.24] | 2 nM | 367 nM
43 | CSc1cccc2nc([C@@H]3CCCN3C(=O)c3cnc(C)nc3-c3ccc(Cl)c(Cl)c3)[nH]c12 [Ex. 1.79] | 5 nM | 46 nM
44 | COc1ccc2nc([C@@H]3[C@@H](C)CCN3C(=O)c3nc(C)sc3-c3cccc(Cl)c3)[nH]c2c1 [Ex. 4.26] | 17 nM | 2280 nM
45 | Cc1nc(C(=O)N2CC[C@H](C)[C@H]2c2nc3c(C)cc(Cl)cc3[nH]2)c(-c2ccc(F)cc2)s1 [Ex. 4.100] | 6 nM | 1280 nM
46 | Cc1ccc(-c2cccnc2)c(C(=O)N2CC[C@H](C)[C@H]2c2nc3c(C)c(Cl)ccc3[nH]2)c1F [Ex. 4.173] | 13 nM | 6330 nM
47 | Cc1c(Cl)ccc2[nH]c([C@]3(C)CCCN3C(=O)c3cc(OC(F)(F)F)ccc3-n3nccn3)nc12 [Ex. 5.35] | 102 nM | 99 nM
48 | COc1cc2nc(C3CCCN3C(=O)c3nc(C)sc3-c3cccc(Cl)c3)[nH]c2cc1OC (stereo not shown) [Ex. 1.110] | 164 nM | 46 nM
49 | COc1ccc2nc([C@@H]3CCCN3C(=O)c3ccccc3-n3nccn3)[nH]c2c1 [Ex. 1.27] | 1040 nM | 35 nM
50 | COc1ccc(-c2sc(C)nc2C(=O)N2CC[C@H](C)[C@H]2c2nc3c(C)c(Cl)ccc3[nH]2)cn1 [Ex. 4.69] | 2 nM | 191 nM

Source: US9732075B2, “Benzimidazole-proline derivatives” (IDORSIA PHARMACEUTICALS LTD, priority 2012, dated 2017)
